Article PMC8212709 (Clinical and Translational Science, 2021)

Experiment: Phase I SRD/MRD safety and tolerability
Assay type: in vivo, human (healthy subjects)

## C=CC(=O)N1CC[C@H](Oc2nc(-c3n[nH]c(=O)[nH]3)cc3ccccc23)C1 [TAK‐020]
MRD 3.75 mg q.d. (n = 6)
  Deaths: 0 n (%)
  Serious TEAEs: 0 n (%)
  Serious TEAEs, Not related: 0 n (%)
  Serious TEAEs, Related: 0 n (%)
  TEAEs: 1 (16.7) n (%)
  TEAEs Leading to DC: 0 n (%)
  TEAEs, Mild: 1 (16.7) n (%)
  TEAEs, Moderate: 0 n (%)
  TEAEs, Not related: 0 n (%)
  TEAEs, Related: 1 (16.7) n (%)
  TEAEs, Severe: 0 n (%)
MRD 5.75 mg q.d. (n = 6)
  Deaths: 0 n (%)
  Serious TEAEs: 0 n (%)
  Serious TEAEs, Not related: 0 n (%)
  Serious TEAEs, Related: 0 n (%)
  TEAEs: 3 (50.0) n (%)
  TEAEs Leading to DC: 0 n (%)
  TEAEs, Mild: 3 (50.0) n (%)
  TEAEs, Moderate: 0 n (%)
  TEAEs, Not related: 1 (16.7) n (%)
  TEAEs, Related: 2 (33.3) n (%)
  TEAEs, Severe: 0 n (%)
MRD 13 mg q.d. (n = 6)
  Deaths: 0 n (%)
  Serious TEAEs: 0 n (%)
  Serious TEAEs, Not related: 0 n (%)
  Serious TEAEs, Related: 0 n (%)
  TEAEs: 3 (50.00) n (%)
  TEAEs Leading to DC: 0 n (%)
  TEAEs, Mild: 3 (50.0) n (%)
  TEAEs, Moderate: 0 n (%)
  TEAEs, Not related: 2 (33.3) n (%)
  TEAEs, Related: 1 (16.7) n (%)
  TEAEs, Severe: 0 n (%)
MRD 25 mg q.d. (n = 6)
  Deaths: 0 n (%)
  Serious TEAEs: 0 n (%)
  Serious TEAEs, Not related: 0 n (%)
  Serious TEAEs, Related: 0 n (%)
  TEAEs: 2 (33.3) n (%)
  TEAEs Leading to DC: 0 n (%)
  TEAEs, Mild: 2 (33.3) n (%)
  TEAEs, Moderate: 0 n (%)
  TEAEs, Not related: 2 (33.3) n (%)
  TEAEs, Related: 0 n (%)
  TEAEs, Severe: 0 n (%)
MRD 45 mg q.d. (n = 6)
  Deaths: 0 n (%)
  Serious TEAEs: 0 n (%)
  Serious TEAEs, Not related: 0 n (%)
  Serious TEAEs, Related: 0 n (%)
  TEAEs: 1 (16.7) n (%)
  TEAEs Leading to DC: 0 n (%)
  TEAEs, Mild: 1 (16.7) n (%)
  TEAEs, Moderate: 0 n (%)
  TEAEs, Not related: 1 (16.7) n (%)
  TEAEs, Related: 0 n (%)
  TEAEs, Severe: 0 n (%)
MRD 60 mg q.d. (n = 6)
  Deaths: 0 n (%)
  Serious TEAEs: 0 n (%)
  Serious TEAEs, Not related: 0 n (%)
  Serious TEAEs, Related: 0 n (%)
  TEAEs: 1 (16.7) n (%)
  TEAEs Leading to DC: 0 n (%)
  TEAEs, Mild: 1 (16.7) n (%)
  TEAEs, Moderate: 0 n (%)
  TEAEs, Not related: 1 (16.7) n (%)
  TEAEs, Related: 0 n (%)
  TEAEs, Severe: 0 n (%)
MRD Overall TAK‐020 (N = 36)
  Deaths: 0 n (%)
  Serious TEAEs: 0 n (%)
  Serious TEAEs, Not related: 0 n (%)
  Serious TEAEs, Related: 0 n (%)
  TEAEs: 11 (30.6) n (%)
  TEAEs Leading to DC: 0 n (%)
  TEAEs, Mild: 11 (30.6) n (%)
  TEAEs, Moderate: 0 n (%)
  TEAEs, Not related: 7 (19.4) n (%)
  TEAEs, Related: 4 (11.1) n (%)
  TEAEs, Severe: 0 n (%)
MRD, overall TAK‐020 group
  percentage of subjects who had TEAEs: 30.6%
MRD, overall TAK‐020 group (four subjects)
  subjects with study treatment‐related TEAEs: 11.1%
SRD Overall TAK‐020 (N = 54)
  Deaths: 0 n (%)
  Serious TEAEs: 0 n (%)
  Serious TEAEs, Not related: 0 n (%)
  Serious TEAEs, Related: 0 n (%)
  TEAEs: 6 (11.1) n (%)
  TEAEs Leading to DC: 0 n (%)
  TEAEs, Mild: 6 (11.1) n (%)
  TEAEs, Moderate: 0 n (%)
  TEAEs, Not related: 3 (5.6) n (%)
  TEAEs, Related: 3 (5.6) n (%)
  TEAEs, Severe: 0 n (%)
SRD and MRD parts
  clinical laboratory test results (including liver function tests), vital sign findings, cytopenias, or ECG results reported as a TEAE: No subject
SRD single dose 0.1 mg (n = 6)
  Deaths: 0 n (%)
  Serious TEAEs: 0 n (%)
  Serious TEAEs, Not related: 0 n (%)
  Serious TEAEs, Related: 0 n (%)
